Results on 28 molecules are retold here after US20100280070A1, “NOVEL TETRAHYDROQUINOLINES AS AROMATASE INHIBITORS” (priority 2008, published 2010).

The structures appear in SMILES notation.

One assay addresses T1, aromatase (Homo sapiens, UniProt P11511).
T1 sequence (P11511 1-503): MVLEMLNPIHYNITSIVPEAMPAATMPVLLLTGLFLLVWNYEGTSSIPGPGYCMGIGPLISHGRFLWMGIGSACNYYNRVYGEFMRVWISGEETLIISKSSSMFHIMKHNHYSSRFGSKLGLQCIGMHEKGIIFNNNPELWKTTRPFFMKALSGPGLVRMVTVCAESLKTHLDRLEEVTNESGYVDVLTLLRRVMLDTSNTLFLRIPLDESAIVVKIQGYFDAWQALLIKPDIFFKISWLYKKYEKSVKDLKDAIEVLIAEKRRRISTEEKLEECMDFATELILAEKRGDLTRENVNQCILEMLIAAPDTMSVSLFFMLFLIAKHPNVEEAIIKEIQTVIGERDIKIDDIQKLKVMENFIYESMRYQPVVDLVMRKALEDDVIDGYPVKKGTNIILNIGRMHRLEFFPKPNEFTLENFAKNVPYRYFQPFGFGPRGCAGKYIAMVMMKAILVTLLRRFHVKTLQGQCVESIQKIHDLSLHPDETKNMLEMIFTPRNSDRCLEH
Assay: not given
As to conditions: Aminoglutethimide = 1; cited from earlier work.
As to `CC(C)(C#N)c1cc(Cn2cncn2)cc(C(C)(C)C#N)c1` [Anasatrozole], the “RP, breast cancer homogenates” value is on record as 450. In the case of `N#Cc1ccc(C(c2ccc(C#N)cc2)n2cncn2)cc1` [Letrozole], the “RP, breast cancer homogenates” value is 1800.

The target in the next assay is T1, aromatase.
Assay: not given
The note with it: read-out: IC50 from human placental microsomal assay; cited from earlier work.
In the case of `C[C@]12CCC(=O)C(O)=C1CC[C@@H]1[C@@H]2CC[C@]2(C)C(=O)CC[C@@H]12` [Formestane], the concentration for half-maximal inhibition (IC50) was 50 nM.

The target of the next assay is T1, aromatase.
Assay: not given
As to conditions: mammary fibroblast cultures; Aminoglutethimide = 1; cited from earlier work.
For the molecule `CC(C)(C#N)c1cc(Cn2cncn2)cc(C(C)(C)C#N)c1` [Anasatrozole], the “RP, mammary fibroblast cultures” value is 570. For `N#Cc1ccc(C(c2ccc(C#N)cc2)n2cncn2)cc1` [Letrozole], the “RP, mammary fibroblast cultures” value is on record as 10,000.

Staying with this assay, now noted: read-out: IC50, mammary fibroblast cultures; cited from earlier work.
Take `C[C@]12CCC(=O)C(O)=C1CC[C@@H]1[C@@H]2CC[C@]2(C)C(=O)CC[C@@H]12` [Formestane]: the IC50 was 45 nM.

The next assay deals with T1, aromatase. The experiment in a line: Aromatase inhibition assay in human placental microsomes. The assay is classed as biochemical. Further details: Microsomal protein (1 mg, from human placental tissue); from tissue; host or cells: human placenta, microsomal fraction. As to conditions: inhibitor 500 nM; human placental microsomal protein; [1β-3H]androstenedione 15 nM; 15 min at 30° C.
As to `N#Cc1ccc(C2CC(n3ccnc3)c3ccccc3N2)cc1` (stereo not shown) [Compound 6f, 4-(4-Imidazol-1-yl-1,2,3,4-tetrahydro-quinolin-2-yl)-benzonitrile], the inhibition at 0.5 µM stood at 84.3%.

`COc1ccc(-c2[nH]c3ccccc3c(=O)c2Cc2ccncc2)cc1` [Compound 10c, 2-(4-Methoxyphenyl)-3-((pyridin-4-yl)methyl)quinolin-4(1H)-one] showed an inhibition at 0.5 µM of 0.7%. The same measure, in the same setting: next, `O=c1c(Cc2ccncc2)c(-c2ccccc2)[nH]c2ccccc12` [Compound 10a, 2-Phenyl-3-((pyridin-4-yl)methyl)quinolin-4(1H)-one]: 7.2%; `Brc1ccc(C2CC(n3ccnc3)c3ccccc3N2)cc1` (stereo not shown) [Compound 6e, 2-(4-Bromophenyl)-4-imidazol-1-yl-1,2,3,4-tetrahydro-quinoline]: 89.7%. Same read-out and setting: the figure for `c1ccc(C2CC(n3cncn3)c3ccccc3N2)cc1` (stereo not shown) [Compound 6h, 2-Phenyl-4-[1,2,4]triazol-1-yl-1,2,3,4-tetrahydro-quinoline] is 11.2%.

The molecule `Clc1ccc(C2CC(n3ccnc3)c3ccccc3N2)cc1` (stereo not shown) [Compound 6d, 2-(4-Chlorophenyl)-4-imidazol-1-yl-1,2,3,4-tetrahydro-quinoline] had an inhibition at 0.5 µM of 87.4%. Same read-out and setting: the figure for `COc1ccc(-c2[nH]c3c(Br)cc(Br)cc3c(=O)c2Cc2ccncc2)cc1` [Compound 10j, 6,8-Dibromo-2-(4-Methoxyphenyl)-3-((pyridin-4-yl)methyl)quinolin-4(1H)-one] is 40.5%. The molecule `N#Cc1ccc(-c2[nH]c3ccccc3c(=O)c2Cc2ccncc2)cc1` [Compound 10f] displayed an inhibition at 0.5 µM of 1.8%. Same read-out and setting: next, `O=c1c(Cc2ccncc2)c(-c2ccc(F)cc2)[nH]c2ccccc12` [Compound 10g, 2-(4-Fluorophenyl)-3-((pyridin-4-yl)methyl)quinolin-4(1H)-one]: 11.8%. Still for that read-out and setting: next, `Cc1ccc(C2CC(n3ccnc3)c3ccccc3N2)cc1` (stereo not shown) [Compound 6b, 2-(p-Tolyl)-4-imidazol-1-yl-1,2,3,4-tetrahydro-quinoline]: 67.4%. Same read-out and setting: the figure for `Fc1ccc(C2CC(n3ccnc3)c3ccccc3N2)cc1` (stereo not shown) [Compound 6g, 2-(4-Fluorophenyl)-4-imidazol-1-yl-1,2,3,4-tetrahydro-quinoline] is 80.5%; for `Cc1ccc(-c2[nH]c3ccccc3c(=O)c2Cc2ccncc2)cc1` [Compound 10b, 2-(p-Tolyl)-3-((pyridin-4-yl)methyl)quinolin-4(1H)-one] it is 3.1%; for `N#Cc1ccc(C2CC(n3cncn3)c3ccccc3N2)cc1` (stereo not shown) [Compound 6m, 4-(4-[1,2,4]Triazol-1-yl-1,2,3,4-tetrahydro-quinolin-2-yl)-benzonitrile] it is 36.1%. With `Brc1ccc(C2CC(n3cncn3)c3ccccc3N2)cc1` (stereo not shown) [Compound 6l, 2-(4-Bromophenyl)-4-[1,2,4]triazol-1-yl-1,2,3,4-tetrahydro-quinoline], the inhibition at 0.5 µM worked out at 43.9%. Same read-out and setting: the figure for `Fc1ccc(C2CC(n3cncn3)c3ccccc3N2)cc1` (stereo not shown) [Compound 6n, 2-(4-Fluorophenyl)-4-[1,2,4]triazol-1-yl-1,2,3,4-tetrahydro-quinoline] is 19.5%. Same read-out and setting: the figure for `O=c1c(Cc2ccncc2)c(-c2ccc(Cl)cc2)[nH]c2c(Br)cc(Br)cc12` [Compound 10k, 6,8-Dibromo-2-(4-Chlorophenyl)-3-((pyridin-4-yl)methyl)quinolin-4(1H)-one] is 55.7%; for `O=c1c(Cc2ccncc2)c(-c2ccccc2)[nH]c2c(Br)cc(Br)cc12` [Compound 10h, 6,8-Dibromo-2-phenyl-3-((pyridin-4-yl)methyl)quinolin-4(1H)-one] it is 27.3%. Same read-out and setting: the figure for `O=c1c(Cc2ccncc2)c(-c2ccc(Cl)cc2)[nH]c2ccccc12` [Compound 10d, 2-(4-Chlorophenyl)-3-((pyridin-4-yl)methyl)quinolin-4(1H)-one] is 13.7%; for `c1ccc(C2CC(n3ccnc3)c3ccccc3N2)cc1` (stereo not shown) [Compound 6a, 2-Phenyl-4-imidazol-1-yl-1,2,3,4-tetrahydro-quinoline] it is 61.8%; for `COc1ccc(C2CC(n3cncn3)c3ccccc3N2)cc1` (stereo not shown) [Compound 6j, 2-(4-Methoxyphenyl)-4-[1,2,4]triazol-1-yl-1,2,3,4-tetrahydro-quinoline] it is 12.8%. As to `Cc1ccc(C2CC(n3cncn3)c3ccccc3N2)cc1` (stereo not shown) [Compound 6i, 2-(p-Tolyl)-4-[1,2,4]triazol-1-yl-1,2,3,4-tetrahydro-quinoline], the inhibition at 0.5 µM was 13.6%. Same read-out and setting: next, `COc1ccc(C2CC(n3ccnc3)c3ccccc3N2)cc1` (stereo not shown) [Compound 6c, 2-(4-Methoxyphenyl)-4-imidazol-1-yl-1,2,3,4-tetrahydro-quinoline]: 53.1%. In the case of `Cc1ccc(-c2[nH]c3c(Br)cc(Br)cc3c(=O)c2Cc2ccncc2)cc1` [Compound 10i, 6,8-Dibromo-2-(p-tolyl)-3-((pyridin-4-yl)methyl)quinolin-4(1H)-one], the inhibition at 0.5 µM was determined as 22.3%. On the same count and under the same terms, the figure for `O=c1c(Cc2ccncc2)c(-c2ccc(Br)cc2)[nH]c2ccccc12` [Compound 10e, 2-(4-Bromophenyl)-3-((pyridin-4-yl)methyl)quinolin-4(1H)-one] is 8.2%; for `Clc1ccc(C2CC(n3cncn3)c3ccccc3N2)cc1` (stereo not shown) [Compound 6k, 2-(4-Chlorophenyl)-4-[1,2,4]triazol-1-yl-1,2,3,4-tetrahydro-quinoline] it is 41.9%.
